Legend:
[1] = test system: Gram negative non-fermenting bacteria; assay: Liquid broth assays (MIC and checkerboard), modified ISO 20776-1:2006; type: cell-based; conditions: individual chemical; tryptic soy broth, 30° C., 24 hours, OD600; MIC = <25% growth vs positive growth control
Text: (§1) The differing behaviours of inhibitory antimicrobials in isolation and mixtures have been widely explored using the concept of the Fractional Concentration and Fractional Inhibitory Concentration (FIC). See for instance JRW Lambert and R Lambert, J. Appl. Microbiol 95, 734 (2003); T. Jadavji, C G Prober and R Cheung, Antimicrobial Agents and Chemotherapy 26, 91 (1984), and WO 2004/006876. These parameters can be defined as follows: FC(component a)=Concentration of component a tested in the mixture/MIC(component a tested as a single active) FIC(component a)=MIC(component a tested in the mixture)/MIC(component a tested as a single active)
(§2) These relationships can be expressed mathematically by summing the fractional MIC values for all the components present in the mixture to give the “fractional inhibitory index”: ΣFIC=FIC(component 1)+FIC(component 2)
(§3) Liquid broth assays (MIC and checkerboard) were conducted to identify the minimum concentration(s) of individual and binary combinations of preservation chemicals. A modified methodology to ISO 20776-1:2006 was utilised for the screening as follows. Stock solutions of preservation chemicals and tryptic soy broth were inoculated with 1-5×10^6 microorganisms and incubated at 30° C. for 24 hours, after which optical densities at OD600 nm were measured. Microorganisms used for assessed included Gram negative non-fermenting bacteria: Pseudomonas aeruginosa, Pseudomonas putida & Burkholderia cepacia and Gram negative fermenting bacteria: Enterobacter gergoviae & Klebsiella species. […] Preservation chemicals were screened at a concentration range of 0.0156-2%.

[2] = test system: Gram negative fermenting bacteria; assay: as above; type: cell-based, Enterobacter gergoviae & Klebsiella species; conditions: individual chemical; tryptic soy broth, 30° C., 24 hours, OD600; MIC = <25% growth vs positive growth control
Text: as §1, §2, §3

Compound: C=C(CC(=O)O)C(=O)O [Itaconic acid]
- MIC Gram negative non-fermenting bacteria [1]: 0.5 wt %
- MIC Gram negative fermenting bacteria [2]: 0.5 wt %

Compound: O=C([O-])c1ccccc1.[Na+] [Sodium benzoate]
- MIC Gram negative non-fermenting bacteria [1]: 1 wt %
- MIC Gram negative fermenting bacteria [2]: 1 wt %

Compound: OCc1ccccc1 [Benzyl alcohol, reference compound]
- MIC Gram negative non-fermenting bacteria [1]: 0.125 wt %
- MIC Gram negative fermenting bacteria [2]: 0.5 wt %
